Experiments:
[1] = biological target: T1, wild-type human cardiac sodium channel, hNav1.5 (Homo sapiens, UniProt Q14524); assay: Late INa screening assay (late sodium current, PatchXpress whole cell patch clamp); type: cell-based; conditions: for inhibition at 10 µM: read-out: Late INa % blk
[2] = biological target: T1, wild-type human cardiac sodium channel, hNav1.5; assay: Peak INa screening assay (tonic block TB and use-dependent block UDB of peak sodium current); type: cell-based; conditions: compound at 10 μM
Experimental: The late sodium current (Late INa) and peak sodium current (Peak INa) assays are performed on an automated electrophysiology platform, PatchXpress 7000A (MDS Analytical Technologies, Sunnyvale, Calif.), which uses the whole cell patch clamp technique to measure currents through the cell membrane of up to 16 cells at a time. The assay uses an HEK293 (human embryonic kidney) cell line heterologously expressing the wild-type human cardiac sodium channel, hNav1.5, purchased from Millipore (Billerica, Mass.). No beta subunits were coexpressed with the Na channel alpha subunit. […] Experiments are carried out at 24-27° C.
For both the Late INa and Peak INa assays, series resistance compensation is set to 50% and whole-cell compensation is performed automatically. […] Currents through open sodium channels are automatically recorded and stored in the DataXpress2 database (MDS Analytical Technologies, Sunnyvale, Calif.). Analysis is performed using DataXpress2 analysis software and data are compiled in Excel.
Compound stocks are routinely made in glass vials to 10 mM in dimethyl sulfoxide (DMSO). In some cases, when compounds are not soluble in DMSO, they are made in 100% ethanol. Stocks are sonicated as necessary. The extracellular solution for screening Late INa is composed of: 140 mM NaCl, 4 mM KCl, 1.8 mM CaCl2, 0.75 mM MgCl2, and 5 mM HEPES with pH adjusted to 7.4 using NaOH. The extracellular solution for screening Peak INa is composed of: 20 mM NaCl, 120 mM N-methyl-D glucamine, 4 mM KCl, 1.8 mM CaCl2, 0.75 mM MgCl2, and 5 mM HEPES with pH adjusted to 7.4 using HCl. The intracellular solution used to perfuse the inside of the cells for both the Late INa and Peak INa assays contains: 120 mM CsF, 20 mM CsCl, 5 mM EGTA, 5 mM HEPES and pH adjusted to 7.4 with CsOH. Compounds are diluted in extracellular solution to 10 μM in glass vials and then transferred to glass well plates before robotic addition to the cells. The 0 Na extracellular solution used at the end of each experiment for the Late INa and Peak INa assays to measure baseline current contains: 140 mM N-methyl-D-glucamine; 4 mM KCl; 1.8 mM CaCl2; 0.75 mM MgCl2; 5 mM HEPES and pH was adjusted to 7.4 with HCl.
Compounds were also evaluated for their effect in several other assays, including their effect on Peak INa. In some cases, the effect on Peak INa was measured using data from the Late INa assay. […] Since the peak INa can be very large, introducing artifacts in the recording, the concentration of Na^+ in the bath is reduced to 20 mM and a nonpermeant cation is added to compensate for the Na^+ that was omitted from the standard extracellular solution (see above). The peak INa assay uses a holding potential of −100 mV and a 20 ms test pulse to 0 mV to activate the channel. As in the Late INa assay, stepping the voltage to 0 mV causes a rapid increase in negative Na current through hNav1.5 that inactivates within a few ms. No late INa activator is added for the peak assay.
For the separate peak INa assay, both tonic (TB) block and use-dependent (UDB) block of peak inward sodium current by 10 μM compound are determined. TB is block of the channel in the resting state, before the channel opens. TB is simulated in this assay by stimulating the channel to open at a low frequency (0.1 Hz). This is done in order to measure the control current amplitude and monitor current rundown, enabling correction for rundown in the calculation of percent block for TB.

[3] = biological target: hERG potassium channel (Homo sapiens, UniProt Q12809); assay: hERG screening assay (PatchXpress patch clamp, CHO cell line)
Experimental: Compounds were screened to test their activity in blocking the hERG potassium channel. The hERG channel is heterologously expressed in a CHO (Chinese Hamster Ovary) cell line. Cells are maintained with standard tissue culture procedures and stable channel expression is maintained with 500 μg/ml G418 in the culture medium. Cells are harvested for testing on the PatchXpress automated patch clamp with Accumax (Innovative Cell Technologies, San Diego, Calif.) to isolate single cells.
The following solutions are used for electrophysiological recordings. The external solution contains: 2 mM CaCl2; 2 mM MgCl2; 4 mM KCl; 150 mM NaCl; 10 mM Glucose; 10 mM HEPES (pH 7.4 with 1M NaOH, osmolarity).
hERG channels are activated when the voltage is stepped to +20 mV from the −80 mV holding potential (see FIG. 3). During a 5 second step at +20 mV, the channels activate and then largely inactivate, so the currents are relatively small. Upon returning to −50 mV from +20 mV, hERG currents transiently become much larger as inactivation is rapidly removed and then the channel closes. The first step to −50 mV for 300 ms is used as a baseline for measuring the peak amplitude during the step to −50 mV after channel activation. The peak current at −50 mV is measured both under control conditions and after addition of compound.
All compounds are prepared as 10 mM DMSO stocks in glass vials. Stock solutions are mixed by vigorous vortexing and sonication for about 2 minutes at room temperature. For testing, compounds are diluted in glass vials using an intermediate dilution step in pure DMSO and then further diluted to working concentrations in external solution. Dilutions are prepared no longer than 20 minutes before use.
After achieving the whole-cell configuration, cells are monitored for 90 seconds to assess stability and washed with external solution for 66 seconds. The voltage protocol described above is then applied to the cells every 12 seconds and throughout the whole procedure. Only cells with stable recording parameters and meeting specified health criteria are allowed to enter the compound addition procedure.
External solution containing 0.1% DMSO (vehicle) is applied to the cells first to establish the control peak current amplitude. After allowing the current to stabilize for 3 to 5 minutes, 1 μM and then 10 μM test compounds are applied. Each compound concentration is added 4 times and cells are kept in test solution until the effect of the compound reaches steady state or for a maximum of 12 minutes. […] Washout in the external solution compartment is performed until the recovery of the current reaches steady state. Data are analyzed using DataXpress, Clampfit (Molecular Devices, Inc., Sunnyvale) and Origin 7 (Originlab Corp.)

[4] = tonic block, read-out: Tonic Peak INa % blk
[5] = use-dependent block, read-out: UDB Peak INa % blk

T1 sequence (Q14524 whole entry): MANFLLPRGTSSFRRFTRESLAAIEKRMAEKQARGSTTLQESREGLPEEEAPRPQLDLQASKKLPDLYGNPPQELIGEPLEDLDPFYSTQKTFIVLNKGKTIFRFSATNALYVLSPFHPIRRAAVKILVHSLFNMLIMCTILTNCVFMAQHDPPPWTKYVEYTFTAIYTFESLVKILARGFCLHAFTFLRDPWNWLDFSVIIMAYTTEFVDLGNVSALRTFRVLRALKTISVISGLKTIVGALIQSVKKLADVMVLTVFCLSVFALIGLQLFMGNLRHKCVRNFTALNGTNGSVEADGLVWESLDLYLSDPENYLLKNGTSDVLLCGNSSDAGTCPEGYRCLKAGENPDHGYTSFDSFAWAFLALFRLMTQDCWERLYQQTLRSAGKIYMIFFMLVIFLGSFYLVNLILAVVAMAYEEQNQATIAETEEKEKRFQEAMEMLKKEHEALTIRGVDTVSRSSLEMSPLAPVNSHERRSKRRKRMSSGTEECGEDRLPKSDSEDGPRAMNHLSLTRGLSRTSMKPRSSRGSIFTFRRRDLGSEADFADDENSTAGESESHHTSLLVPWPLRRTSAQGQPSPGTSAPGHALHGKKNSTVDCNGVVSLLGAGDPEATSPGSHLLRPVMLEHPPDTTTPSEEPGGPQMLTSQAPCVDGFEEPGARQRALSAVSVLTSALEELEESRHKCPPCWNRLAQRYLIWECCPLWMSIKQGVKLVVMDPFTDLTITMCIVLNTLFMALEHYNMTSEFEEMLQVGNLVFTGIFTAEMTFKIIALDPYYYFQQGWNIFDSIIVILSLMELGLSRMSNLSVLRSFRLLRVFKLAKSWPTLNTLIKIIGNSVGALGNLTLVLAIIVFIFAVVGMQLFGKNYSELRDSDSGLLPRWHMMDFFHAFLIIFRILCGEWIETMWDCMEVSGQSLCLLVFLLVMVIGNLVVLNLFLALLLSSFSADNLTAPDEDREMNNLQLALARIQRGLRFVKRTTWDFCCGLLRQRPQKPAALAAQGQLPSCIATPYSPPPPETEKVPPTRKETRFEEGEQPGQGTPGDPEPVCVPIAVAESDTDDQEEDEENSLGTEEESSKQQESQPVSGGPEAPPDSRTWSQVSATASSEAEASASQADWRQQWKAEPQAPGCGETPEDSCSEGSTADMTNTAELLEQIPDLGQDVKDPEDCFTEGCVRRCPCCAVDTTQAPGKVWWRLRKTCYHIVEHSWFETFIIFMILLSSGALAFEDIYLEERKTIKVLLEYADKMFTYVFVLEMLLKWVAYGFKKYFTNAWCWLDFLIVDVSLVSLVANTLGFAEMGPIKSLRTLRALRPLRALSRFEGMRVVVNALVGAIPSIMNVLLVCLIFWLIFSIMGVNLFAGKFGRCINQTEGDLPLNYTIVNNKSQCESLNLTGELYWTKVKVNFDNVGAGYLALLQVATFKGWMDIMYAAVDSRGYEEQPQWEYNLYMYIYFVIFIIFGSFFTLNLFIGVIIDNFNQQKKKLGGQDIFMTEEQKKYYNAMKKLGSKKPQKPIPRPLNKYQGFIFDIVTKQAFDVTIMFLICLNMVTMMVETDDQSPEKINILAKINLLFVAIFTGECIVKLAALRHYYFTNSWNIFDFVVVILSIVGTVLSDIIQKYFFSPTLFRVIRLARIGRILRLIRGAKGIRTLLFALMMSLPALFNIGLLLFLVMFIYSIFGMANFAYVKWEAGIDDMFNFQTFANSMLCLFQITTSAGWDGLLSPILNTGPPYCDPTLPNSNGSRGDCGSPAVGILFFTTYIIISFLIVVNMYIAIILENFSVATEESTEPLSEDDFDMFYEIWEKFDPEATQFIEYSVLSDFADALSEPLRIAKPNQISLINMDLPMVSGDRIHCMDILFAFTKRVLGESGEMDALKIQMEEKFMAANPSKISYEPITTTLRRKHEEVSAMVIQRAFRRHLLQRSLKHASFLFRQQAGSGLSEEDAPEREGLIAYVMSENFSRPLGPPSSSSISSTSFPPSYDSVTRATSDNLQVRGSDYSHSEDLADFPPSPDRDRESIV
Chain of hERG potassium channel (Q12809 whole entry): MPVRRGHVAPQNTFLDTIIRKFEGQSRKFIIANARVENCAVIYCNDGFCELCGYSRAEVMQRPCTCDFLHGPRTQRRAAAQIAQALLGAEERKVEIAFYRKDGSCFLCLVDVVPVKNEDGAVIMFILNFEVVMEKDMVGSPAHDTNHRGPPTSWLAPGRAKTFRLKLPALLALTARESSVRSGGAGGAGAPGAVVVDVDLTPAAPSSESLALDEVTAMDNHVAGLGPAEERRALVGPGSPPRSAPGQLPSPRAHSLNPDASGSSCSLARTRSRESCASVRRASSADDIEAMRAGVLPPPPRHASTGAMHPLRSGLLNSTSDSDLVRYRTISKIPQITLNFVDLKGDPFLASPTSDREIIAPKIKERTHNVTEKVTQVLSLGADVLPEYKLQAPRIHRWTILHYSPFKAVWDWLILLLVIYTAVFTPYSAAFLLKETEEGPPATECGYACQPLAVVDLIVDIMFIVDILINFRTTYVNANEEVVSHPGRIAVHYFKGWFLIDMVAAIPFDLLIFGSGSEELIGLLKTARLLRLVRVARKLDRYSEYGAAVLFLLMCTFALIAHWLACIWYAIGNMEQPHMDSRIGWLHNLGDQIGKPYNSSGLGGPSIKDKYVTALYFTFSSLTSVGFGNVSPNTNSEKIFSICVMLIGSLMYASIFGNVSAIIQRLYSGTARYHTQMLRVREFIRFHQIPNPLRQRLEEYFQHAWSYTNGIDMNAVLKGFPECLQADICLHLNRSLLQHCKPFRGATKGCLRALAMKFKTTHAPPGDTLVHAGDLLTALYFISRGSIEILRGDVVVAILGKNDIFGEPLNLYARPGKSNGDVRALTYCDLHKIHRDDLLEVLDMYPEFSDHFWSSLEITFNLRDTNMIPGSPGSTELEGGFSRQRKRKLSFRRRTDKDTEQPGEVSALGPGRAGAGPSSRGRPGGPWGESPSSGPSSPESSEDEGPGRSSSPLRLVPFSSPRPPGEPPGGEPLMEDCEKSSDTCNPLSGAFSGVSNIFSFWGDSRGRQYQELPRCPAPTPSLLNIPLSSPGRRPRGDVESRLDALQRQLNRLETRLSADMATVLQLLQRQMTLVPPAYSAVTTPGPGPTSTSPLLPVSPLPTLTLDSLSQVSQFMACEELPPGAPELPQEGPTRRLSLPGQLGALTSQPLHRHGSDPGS

Molecule | inhibition at 10 µM ([1]; compound at 10 μM) [%] | inhibition at 10 µM [2, 4] [%] | inhibition at 10 µM [2, 5] [%] | inhibition at 10 µM [1] [%] | hERG Patch Clamp hERG % blk ([3]; 1 μM) [%] | hERG Patch Clamp hERG % blk ([3]; 10 μM) [%] | Late INa % blk ([1]; compound at 10 μM) [%]
CC1=C(C(=O)OC(c2ccc(F)cc2)c2ccc(F)cc2)C(c2cccs2)n2nnnc2N1 (centres unmarked) [PT-423, bis(4-fluorophenyl)methyl 5-methyl-7-(thiophen-2-yl)-4,7-dihydrotetrazolo[1,5-a]pyrimidine-6-carboxylate] | 67.2 | 18.5 | 20.4 | – | – | – | –
CC1=C(C(=O)OCc2ccccc2)C(c2ccc3ccccc3c2)C2=C(CCCC2=O)N1 (centres unmarked) [PT-320, benzyl 2-methyl-4-(naphthalen-2-yl)-5-oxo-1,4,5,6,7,8-hexahydroquinoline-3-carboxylate] | 51 | 16.7 | 26.5 | – | – | – | –
CC1=C(C(=O)OC(C)C)C(c2c[nH]nc2-c2cccs2)C2=C(CC(C)(C)CC2=O)N1 (centres unmarked) [PT-162, isopropyl 2,7,7-trimethyl-5-oxo-4-(3-(thiophen-2-yl)-1H-pyrazol-4-yl)-1,4,5,6,7,8-hexahydroquinoline-3-carboxylate] | -0.2 | 1.1 | – | – | – | – | –
CC1=C(C(=O)OCc2ccccc2)C(c2occc2-c2ccccc2)n2nnnc2N1 (centres unmarked) [PT-351, benzyl 5-methyl-7-(3-phenylfuran-2-yl)-4,7-dihydrotetrazolo[1,5-a]pyrimidine-6-carboxylate] | 81.6 | 49.9 | – | – | – | – | –
CC1=C(C(=O)OCC2CC2)C(c2c(Br)sc3ccccc23)n2nnnc2N1 (centres unmarked) [PT-426, cyclopropylmethyl 7-(2-bromobenzo[b]thiophen-3-yl)-5-methyl-4,7-dihydrotetrazolo[1,5-a]pyrimidine-6-carboxylate] | 81 | 60.1 | 50.7 | – | – | – | –
CC1=C(c2nnc(Cc3ccccc3)o2)C(c2cccc3ccccc23)C2=C(CCCC2=O)N1 (centres unmarked) [PT-276, 3-(5-benzyl-1,3,4-oxadiazol-2-yl)-2-methyl-4-(naphthalen-1-yl)-4,6,7,8-tetrahydroquinolin-5(1H)-one] | 49.7 | 31.3 | 13 | – | – | – | –
CCOC(=O)[C@@H]1CCCN(c2cc(OC)ccc2C2C(C(=O)OCc3ccccc3)=C(C)Nc3[nH]ncc32)C1 (stereo partly drawn) [PT-327, benzyl 4-(2-((R)-3-(ethoxycarbonyl)piperidin-1-yl)-4-methoxyphenyl)-6-methyl-4,7-dihydro-1H-pyrazolo[3,4-b]pyridine-5-carboxylate] | 35.3 | 18.5 | 9.4 | – | – | – | –
COc1ccc(-c2sc3ccccc3c2C2C(C(=O)OCc3ccccc3)=C(C)Nc3nnnn32)cc1 (centres unmarked) [PT-379, benzyl 7-(2-(4-methoxyphenyl)benzo[b]thiophen-3-yl)-5-methyl-4,7-dihydrotetrazolo[1,5-a]pyrimidine-6-carboxylate] | 55 | 11.1 | 9.8 | – | – | – | –
CCOC(=O)C1=C(C)NC(C)=C(C(=O)OCC)C1c1ccsc1 [PT-110, diethyl 2,6-dimethyl-4-(thiophen-3-yl)-1,4-dihydropyridine-3,5-dicarboxylate] | 41.8 | 0 | – | – | – | – | –
CCOC(=O)C1=C(C)NC2=C(C(=O)CCC2)C1c1ccc(C)c2ccccc12 (centres unmarked) [PT-135, ethyl 2-methyl-4-(4-methylnaphthalen-1-yl)-5-oxo-1,4,5,6,7,8-hexahydroquinoline-3-carboxylate] | 59.9 | 9.6 | – | – | – | – | –
CCOC(=O)C1=C(C)Nc2nnnn2C1c1sc2ccccc2c1C (centres unmarked) [PT-018, ethyl 5-methyl-7-(3-methylbenzo[b]thiophen-2-yl)-4,7-dihydrotetrazolo[1,5-a]pyrimidine-6-carboxylate] | – | – | – | 36.5 | 14.5 | 36.5 | –
H-furo[3,4-e]pyrazolo[3,4-b]pyridin-5(4H)-one [PT-079] | – | – | – | – | 57.5 | 96.5 | 49.0
CC1=C(C(=O)OCc2ccccc2)C(c2csc3ccccc23)n2nnnc2N1 (centres unmarked) [PT-042, benzyl 7-(benzo[b]thiophen-3-yl)-5-methyl-4,7-dihydrotetrazolo[1,5-a]pyrimidine-6-carboxylate] | 76.5 | – | – | – | 11.0 | 52.5 | –
COc1ccc2ccccc2c1C1C(C(=O)OCc2ccccc2)=C(C)Nc2nnnn21 (centres unmarked) [PT-030, benzyl 7-(2-methoxynaphthalen-1-yl)-5-methyl-4,7-dihydrotetrazolo[1,5-a]pyrimidine-6-carboxylate] | 66.5 | – | – | – | 10.5 | 34.5 | –
CC1=C(C(=O)OCc2ccccc2)[C@@H](c2ccccc2-c2ccc(Cl)s2)n2nnnc2N1 [PT-237, (R)-benzyl 7-(2-(5-chlorothiophen-2-yl)phenyl)-5-methyl-4,7-dihydrotetrazolo[1,5-a]pyrimidine-6-carboxylate] | 61.5 | – | – | – | 11.5 | 22.5 | –
CC1=C(C(=O)OCc2ccccc2)C(c2ccccc2-c2ccc(C(=O)O)cc2)C2=C(CCCC2=O)N1 (centres unmarked) [PT-249, 2′-(3-(benzyloxycarbonyl)-2-methyl-5-oxo-1,4,5,6,7,8-hexahydroquinolin-4-yl)biphenyl-4-carboxylic acid] | 20 | – | – | – | 11.5 | 15.5 | –
CC1=C(C(=O)OCc2ccccc2)C(c2occc2-c2ccc(F)cc2)n2nnnc2N1 (centres unmarked) [PT-396, benzyl 7-(3-(4-fluorophenyl)furan-2-yl)-5-methyl-4,7-dihydrotetrazolo[1,5-a]pyrimidine-6-carboxylate] | 80.7 | – | – | – | 10.0 | 32.0 | –
CCOC(=O)C1=C(C)Nc2[nH]ncc2C1c1ccccc1Br (centres unmarked) [PT-448, ethyl 4-(2-bromophenyl)-6-methyl-4,7-dihydro-1H-pyrazolo[3,4-b]pyridine-5-carboxylate] | 33.6 | – | – | – | 10.0 | 57.5 | –
CCCC1=C(C(=O)OCC)C(c2ccsc2)C2=C(CC(c3ccco3)CC2=O)N1 (centres unmarked) [PT-150, ethyl 7-(furan-2-yl)-5-oxo-2-propyl-4-(thiophen-3-yl)-1,4,5,6,7,8-hexahydroquinoline-3-carboxylate] | 52.9 | – | – | – | 28.2 | 49.3 | –
CC1=C(C(=O)OCc2ccccc2)C(c2cccc3c2OCO3)n2nnnc2N1 (centres unmarked) [PT-034, benzyl 7-(benzo[d][1,3]dioxol-4-yl)-5-methyl-4,7-dihydrotetrazolo[1,5-a]pyrimidine-6-carboxylate] | 52.4 | – | – | – | 14.5 | 56.0 | –
CC1=C(C(=O)OCc2ccccc2)C(c2ccc(N(C)C)cc2[N+](=O)[O-])n2nnnc2N1 (centres unmarked) [PT-409, benzyl 7-(4-(dimethylamino)-2-nitrophenyl)-5-methyl-4,7-dihydrotetrazolo[1,5-a]pyrimidine-6-carboxylate] | 43.1 | – | – | – | 27.0 | 78.5 | –
COc1ccc(COC(=O)C2=C(C)Nc3nnnn3C2c2cccc3ccccc23)cc1OC (centres unmarked) [PT-061, 3,4-dimethoxybenzyl 5-methyl-7-(naphthalen-1-yl)-4,7-dihydrotetrazolo[1,5-a]pyrimidine-6-carboxylate] | 37.3 | – | – | – | 24.0 | 46.5 | –

From patent publication US20090012103A1, “SUBSTITUTED HETEROCYCLIC COMPOUNDS” (priority 2007, published 2009)
